Laboratory results taken from patent US6914045B2, “Glycopeptide antibiotics” (Wyeth Holdings Corporation, priority 2001, dated 2005).
Numbered stars: 1 amine (or outer) side, 2 acyl side, 3 side chain; on linkers, the order of the positions; unused ones are H or OH. Square brackets hold non-standard residues; d marks the D form. Peptide text beside a SMILES is read from it. * marks the point of attachment. ξ: configuration not given here. X1 = N=C1NCC(C(O)C(N[*:1])C(=O)[*:2])N1C1OC(CO)C(O)C(O)C1O; ξEnduracididine(βξ-OH,4'ξ) = N=C1NCC(C(O)C(N)C(=O)O)N1; X2 = OCC1OC(OC2C(CO)OC(*)C(O)C2O)C(O)C(O)C1O; Diphenylacetyl = O=C(C(c1ccccc1)c1ccccc1)*; ξPhe(βξ-Me) = CC(c1ccccc1)C(N)C(=O)O

What was measured:
Assay in all cases: in vitro antibacterial evaluation, MIC by broth dilution
Type in all cases: cell-based
[1] = system: Enterococcus sp.; details: broth dilution, 18 hours at 35° C.
How it was run: (§1)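 Read-out: the lowest concentration at which the test strain fails to grow. Serial dilutions (64-0.06 μg/mL) in Muller-Hinton II […], 5×10^5 CFU/mL inoculum, NCCLS M7-A2 procedure.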

[2] = system: Staphylococcus sp.; details: broth dilution, 18 hours at 35° C.
How it was run: as §1

[3] = system: Streptococcus sp.; details: broth dilution, 18 hours at 35° C.
How it was run: as §1

[4] = system: Escherichia coli; details: 18 hours at 35° C.
How it was run: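 Broth dilution MIC per NCCLS M7-A2 in Mueller-Hinton II medium, inoculum 5×10^5 CFU/mL, antibiotic range 64-0.06 μg/mL. MIC taken as lowest concentration inhibiting growth.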

CC(c1ccccc1)C1NC(=O)CNC(=O)C(COC(=O)C(c2ccccc2)c2ccccc2)NC(=O)C(C(O)C2CNC(=N)N2C2OC(CO)C(O)C(O)C2O)NC(=O)C(C(O)C2CNC(=N)N2)NC(=O)C(Cc2ccc(OC3OC(CO)C(OC4OC(CO)C(O)C(O)C4O)C(O)C3O)cc2)NC1=O (stereo not drawn) [Example 96a, Cyclo[glycyl-β-methylphenylalanyl-O-(4-O-hexopyranosylhexopyranosyl)tyrosyl-3-(2-iminoimidazolidin-4-yl)seryl-3-(3-hexopyranosyl-2-iminoimidazolidin-4-yl)seryl-O-(diphenylacetyl)-seryl]] (cyclo(G[ξPhe(βξ-Me)]Y(X2)[ξEnduracididine(βξ-OH,4'ξ)][X1]S(Diphenylacetyl)); configuration not given here)
>128 µg/mL: MIC Enterococcus avium (GC 4558) ([1]; Enterococcus avium (GC 4558)) | MIC Enterococcus faecalis (ATCC 29212) ([1]; Enterococcus faecalis (ATCC 29212)) | MIC Enterococcus faecalis (GC 2242) ([1]; Enterococcus faecalis (GC 2242)) | MIC Enterococcus faecalis (GC 4552) ([1]; Enterococcus faecalis (GC 4552)) | MIC Enterococcus faecalis (GC 4553) ([1]; Enterococcus faecalis (GC 4553)) | MIC Enterococcus faecalis (GC 4554) ([1]; Enterococcus faecalis (GC 4554)) | MIC Enterococcus faecium (GC 4556) ([1]; Enterococcus faecium (GC 4556)) | MIC Enterococcus avium (GC 4558) [1] | MIC Enterococcus faecalis (ATCC 29212) [1] | MIC Enterococcus faecalis (GC 2242) [1] | MIC Enterococcus faecalis (GC 4552) [1] | MIC Enterococcus faecalis (GC 4553) [1] | MIC Enterococcus faecalis (GC 4554) [1] | MIC Enterococcus faecium (GC 4556) [1] | MIC Coagulase Negative Staphylococcus (GC 4548) [2] | MIC Staphylococcus aureus-SMITH (GC 4543) [2] | MIC Coagulase Negative Staphylococcus (GC 4548) ([2]; strain GC 4548) | MIC Staphylococcus aureus-SMITH (GC 4543) ([2]; strain SMITH GC 4543) | MIC Staphylococcus aureus (ATCC 29213) ([2]; strain ATCC 29213) | MIC Staphylococcus aureus (GC 1131) ([2]; strain GC 1131) | MIC Staphylococcus aureus (GC 4542) ([2]; strain GC 4542) | MIC Staphylococcus aureus (GC 4544) ([2]; strain GC 4544) | MIC Staphylococcus aureus (GC 4545) ([2]; strain GC 4545) | MIC Escherichia coli (ATCC 25922) [4]
128 µg/mL: MIC Enterococcus faecium (GC 2243) ([1]; Enterococcus faecium (GC 2243)) | MIC Enterococcus faecium (GC 2243) [1] | MIC Coagulase Negative Staphylococcus (GC 4547) [2] | MIC Coagulase Negative Staphylococcus (GC 4551) [2] | MIC Staphylococcus haemolyticus (GC 4546) [2] | MIC Staphylococcus haemolyticus (GC 4546) ([2]; strain GC 4546) | MIC Coagulase Negative Staphylococcus (GC 4547) ([2]; strain GC 4547) | MIC Coagulase Negative Staphylococcus (GC 4551) ([2]; strain GC 4551) | MIC Staphylococcus aureus (GC 4541) ([2]; strain GC 4541)
32 µg/mL: MIC Enterococcus faecium (GC 4557) ([1]; Enterococcus faecium (GC 4557)) | MIC Enterococcus faecium (GC 4557) [1] | MIC Streptococcus agalactiae (GC 4564) ([3]; Streptococcus agalactiae (GC 4564)) | MIC Streptococcus pyogenes (ID-3187) ([3]; Streptococcus pyogenes (ID-3187)) | MIC Streptococcus agalactiae (GC 4564) [3] | MIC Streptococcus pyogenes (ID-3187) [3]
64 µg/mL: MIC Coagulase Negative Staphylococcus (GC 4549) [2] | MIC Coagulase Negative Staphylococcus (ID-3941) [2] | MIC Coagulase Negative Staphylococcus (GC 4549) ([2]; strain GC 4549) | MIC Coagulase Negative Staphylococcus (ID-3941) ([2]; strain ID-3941)
16 µg/mL: MIC Streptococcus pneumoniae (GC 4565) ([3]; Streptococcus pneumoniae (GC 4565)) | MIC Streptococcus pneumoniae (GC 4565) [3]
